According to US20150051176A1, “ARYL DERIVATIVES AS SPHINGOSINE-1 PHOSPHATE RECEPTORS MODULATORS” (Allergan, Inc., priority 2013, published 2015):

Molecular target: T1, human S1P1 receptor (Homo sapiens, UniProt P21453)
T1 construct: expressed in transfected cells; membranes used
Assay: GTP γ35S binding assay for S1P1 activity
Format: biochemical
Settings: membranes of cells stably expressing the S1P1 receptor, test concentrations 0.08 to 5,000 nM
Method: Compounds were synthesized and tested for S1P1 activity using the GTP γ^35S binding assay. These compounds may be assessed for their ability to activate or block activation of the human S1P1 receptor in cells stably expressing the S1P1 receptor.
GTP γ^35S binding was measured in the medium containing (mM) HEPES 25, pH 7.4, MgCl2 10, NaCl 100, dithiothreitol 0.5, digitonin 0.003%, 0.2 nM GTP γ^35S, and 5 μg membrane protein in a volume of 150 μl. Test compounds were included in the concentration range from 0.08 to 5,000 nM unless indicated otherwise. Membranes were incubated with 100 μM 5′-adenylylimidodiphosphate for 30 min, and subsequently with 10 μM GDP for 10 min on ice. Drug solutions and membrane were mixed, and then reactions were initiated by adding GTP γ^35S and continued for 30 min at 25° C. Reaction mixtures were filtered over Whatman GF/B filters under vacuum, and washed three times with 3 mL of ice-cold buffer (HEPES 25, pH7.4, MgCl2 10 and NaCl 100). Filters were dried and mixed with scintillant, and counted for ^35S activity using a β-counter. Agonist-induced GTP γ^35S binding was obtained by subtracting that in the absence of agonist. Binding data were analyzed using a non-linear regression method. In case of antagonist assay, the reaction mixture contained 10 nM […] in the presence of test antagonist at concentrations ranging from 0.08 to 5000 nM.

T1 sequence (P21453 whole entry): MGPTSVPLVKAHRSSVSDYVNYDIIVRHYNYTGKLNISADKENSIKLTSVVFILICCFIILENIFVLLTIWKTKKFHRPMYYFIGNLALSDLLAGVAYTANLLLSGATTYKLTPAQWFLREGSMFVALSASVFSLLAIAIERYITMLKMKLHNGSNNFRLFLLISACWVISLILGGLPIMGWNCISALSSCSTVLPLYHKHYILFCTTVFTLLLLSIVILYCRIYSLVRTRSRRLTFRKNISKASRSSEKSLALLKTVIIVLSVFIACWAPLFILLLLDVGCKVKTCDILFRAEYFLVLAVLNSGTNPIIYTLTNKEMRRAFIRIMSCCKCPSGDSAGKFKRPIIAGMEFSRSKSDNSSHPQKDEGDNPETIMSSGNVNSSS

Row | Structure (SMILES) | EC50 [nM]
1 | Cc1ccc(CC(CCCCCCNCCCP(=O)(O)O)c2cccc(Cl)c2)cc1C (centres unmarked) [3-{[7-(3-Chlorophenyl)-8-(3,4-dimethylphenyl)octyl]amino}propyl)phosphonic acid] | 169
2 | Cc1ccc(CC(CCCCCCCNCCC(=O)O)c2cc(F)cc(F)c2)cc1C (centres unmarked) [3-{[8-(3,5-Difluorophenyl)-9-(3,4-dimethylphenyl)nonyl]amino}propanoic acid] | 45.4
3 | Cc1ccc(CC(CCCCCCCNCCC(=O)O)c2cccc(Cl)c2)cc1C (centres unmarked) [3-{[8-(3-Chlorophenyl)-9-(3,4-dimethylphenyl)nonyl]amino}propanoic acid] | 487
4 | Cc1ccc(CC(CCCCCCCNCCCP(=O)(O)O)c2cccc(Cl)c2)cc1C (centres unmarked) [3-{[8-(3-chlorophenyl)-9-(3,4-dimethylphenyl)nonyl]amino}propylphosphonic acid] | 8.18
5 | O=C(O)CCNCCCCCCCCC(Cc1ccccc1)c1cccc(Cl)c1 (centres unmarked) [3-{[9-(3-Chlorophenyl)-10-phenyldecyl]amino}propanoic acid] | 21.8

Now from value to molecule:

Row | EC50 [nM] | Structure (SMILES)
6 | 3.03 | Cc1ccc(CC(CCCCCCCNCCCP(=O)(O)O)c2cc(F)cc(F)c2)cc1C (centres unmarked) [(3-{[8-(3,5-Difluorophenyl)-9-(3,4-dimethylphenyl)nonyl]amino}propyl)phosphonic acid]
7 | 293 | Cc1ccc(CC(CCCCCCCCNCCCP(=O)(O)O)c2cccc(Cl)c2)cc1C (centres unmarked) [(3-{[9-(3-Chlorophenyl)-10-(3,4-dimethylphenyl)decyl]amino}propyl)phosphonic acid]
8 | 2.13 | O=P(O)(O)CCCNCCCCCCCCC(Cc1ccccc1)c1cccc(Cl)c1 (centres unmarked) [(3-{[9-(3-Chlorophenyl)-10-phenyldecyl]amino}propyl)phosphonic acid]
